Source: patent US10800792B2, “Inhibitors of Bruton's tyrosine kinase and method of their use” (JANSSEN PHARMACEUTICA NV, priority 2015, dated 2020)

The compounds below were run against unphosphorylated-BTK kinase domain (UP-BTK), GST-tagged human BTK (389-659aa) (Homo sapiens (Human), UniProt Q06187) (assay: BTK kinase Lanthascreen binding assay). Conditions: Lanthascreen tracer competition, 60 minutes incubation; pIC50 = negative log of the IC50 in molar.
In short: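 Tracer-displacement binding assay against the non-phosphorylated enzyme, read by Lanthascreen. Reported: pIC50.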

Sequence of unphosphorylated-BTK kinase domain (UP-BTK), GST-tagged human BTK (389-659aa) (Q06187 389-659): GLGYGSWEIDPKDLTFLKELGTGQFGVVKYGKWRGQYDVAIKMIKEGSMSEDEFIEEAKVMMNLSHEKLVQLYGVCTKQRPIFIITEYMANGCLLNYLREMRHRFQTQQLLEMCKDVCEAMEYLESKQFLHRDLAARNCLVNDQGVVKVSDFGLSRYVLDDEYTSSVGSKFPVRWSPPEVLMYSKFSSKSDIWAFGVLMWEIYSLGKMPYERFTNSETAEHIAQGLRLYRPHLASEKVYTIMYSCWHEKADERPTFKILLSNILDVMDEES

Row | Compound | BTK_I_binding pIC50
1 | O=C(N[C@@H]1CCCNC1)c1sc2nccc3c2c1NC(=O)N3c1ccc(Oc2ccccc2)cc1 [Example 860, (R)-4-oxo-5-(4-phenoxyphenyl)-N-(piperidin-3-yl)-4,5-dihydro-3H-1-thia-3,5,8-triazaacenaphthylene-2-carboxamide] | 7.4
2 | CC(=O)N1CCC[C@@H]1/C=C(\C#N)C(=O)N1CCC[C@@H](NC(=O)c2sc3nccc4c3c2NC(=O)N4c2ccc(Oc3ccccc3)cc2C)C1 [Example 683, N—((R)-1-((E)-3-((R)-1-Acetylpyrrolidin-2-yl)-2-cyanoacryloyl)piperidin-3-.l)-5-(2-methyl-4-phenoxyphenyl)-4-oxo-4,5-dihydro-3H-1-thia-3,5,8-triazaacenaphthylene-2-carboxamide] | 7.7
3 | C=CC(=O)N1CCC[C@@H](NC(=O)c2sc3nccc4c3c2NC(=O)N4c2ccc(OC3CCC3)nc2C)C1 [Example 704, (R)—N-(1-Acryloylpiperidin-3-yl)-5-(6-cyclobutoxy-2-methylpyridin-3-yl)-4-oxo-4,5-dihydro-3H-1-thia-3,5,8-triazaacenaphthylene-2-carboxamide] | 6.6
4 | Cc1cc(Oc2ccccc2)ccc1N1C(=O)Nc2c(C(=O)N[C@H]3CCCN(C(=O)CC#N)C3)sc3nccc1c23 [Example 892, (S)—N-(1-(2-Cyanoacetyl)piperidin-3-yl)-5-(2-methyl-4-phenoxyphenyl)-4-oxo-4,5-dihydro-3H-1-thia-3,5,8-triazaacenaphthylene-2-carboxamide] | 7.0
5 | C=CC(=O)N1CCC[C@@H](NC(=O)c2sc3nccc4c3c2NC(=O)N4c2ccc(OC(C)C)nc2C)C1 [Example 732, (R)—N-(1-Acryloylpiperidin-3-yl)-5-(6-isopropoxy-2-methylpyridin-3-yl)-4-oxo-4,5-dihydro-3H-1-thia-3,5,8-triazaacenaphthylene-2-carboxamide] | <6
6 | O=C(N[C@@H]1CCCNC1)c1sc2nccc3c2c1NC(=O)N3c1cc(-c2ccccc2)ccn1 [Example 610, (R)-4-Oxo-5-(4-phenylpyridin-2-yl)-N-(piperidin-3-yl)-4,5-dihydro-3H-1-thia-3,5,8-triazaacenaphthylene-2-carboxamide] | 6.2
7 | C=CC(=O)N1CCC[C@@H](NC(=O)c2sc3nccc4c3c2NC(=O)N4c2ccc(OC(C)C)nc2C)C1 (single isomer, unassigned) [Example 753, (R)—N-(1-Acryloylpiperidin-3-yl)-5-(*S)-(6-isopropoxy-2-methylpyridin-3-yl)-4-oxo-4,5-dihydro-3H-1-thia-3,5,8-triazaacenaphthylene-2-carboxamide] | 6.2
8 | C=CC(=O)N1CCC[C@@H](NC(=O)c2sc3nccc4c3c2NC(=O)N4c2cnc(OC(C)C)cc2C)C1 (single isomer, unassigned) [Example 804, (R)—N-(1-Acryloylpiperidin-3-yl)-5-(*R)-(6-isopropoxy-4-methylpyridin-3-yl)-4-oxo-4,5-dihydro-3H-1-thia-3,5,8-triazaacenaphthylene-2-carboxamide] | 6.1
9 | C=CC(=O)N1CCC[C@@H](NC(=O)c2sc3nccc4c3c2NC(=O)N4c2ncc(Oc3ccccc3)cn2)C1 [Example 665, (R)—N-(1-Acryloylpiperidin-3-yl)-4-oxo-5-(5-phenoxypyrimidin-2-yl)-4,5-dihydro-3H-1-thia-3,5,8-triazaacenaphthylene-2-carboxamide] | 7.8

Same assay, conditions: pIC50 = negative log of the IC50 in molar; 60 minutes incubation, 50 nM Tracer 236

Row | Compound | BTK_I_binding pIC50
10 | Cc1cc(Oc2ccccc2)ccc1N1C(=O)Nc2c(C(=O)N[C@H]3CN(C)C[C@H]3F)sc3nccc1c23 [Example 132, N-((3S,4R)-4-Fluoro-1-methylpyrrolidin-3-yl)-5-(2-methyl-4-phenoxyphenyl)-4-oxo-4,5-dihydro-3H-1-thia-3,5,8-triazaacenaphthylene-2-carboxamide] | 7.2
11 | Cc1cc(Oc2ccccc2)ccc1N1C(=O)Nc2c(C(=O)NC3CCC(=O)N(C)C3)sc3nccc1c23 (centres unmarked) [Example 162, 5-(2-Methyl-4-phenoxyphenyl)-N-(1-methyl-6-oxopiperidin-3-yl)-4-oxo-4,5-dihydro-3H-1-thia-3,5,8-triazaacenaphthylene-2-carboxamide] | 6.8
12 | COC[C@H](O)C(=O)N1CCC[C@@H](NC(=O)c2sc3nccc4c3c2NC(=O)N4c2ccc(Oc3ccccc3)cc2C)C1 [Example 122, N—((R)-1-((S)-2-Hydroxy-3-methoxypropanoyl)piperidin-3-yl)-5-(2-methyl-4-phenoxyphenyl)-4-oxo-4,5-dihydro-3H-1-thia-3,5,8-triazaacenaphthylene-2-carboxamide] | 7.4
13 | CCCN1CCC[C@@H](NC(=O)c2sc3nccc4c3c2NC(=O)N4c2ccc(Oc3ccccc3)cc2C)C1 [Example 60, (R)-5-(2-Methyl-4-phenoxyphenyl)-4-oxo-N-(1-propylpiperidin-3-yl)-4,5-dihydro-3H-1-thia-3,5,8-triazaacenaphthylene-2-carboxamide] | 6.8
14 | C=CC(=O)N1CCC[C@@H](NC(=O)c2sc3nccc4c3c2NC(=O)N4c2ccc(OC3CCOCC3)cc2C)C1 [Example 65, (R)—N-(1-Acryloylpiperidin-3-yl)-5-(2-methyl-4-((tetrahydro-2H-pyran-4-yl)oxy)phenyl)-4-oxo-4,5-dihydro-3H-1-thia-3,5,8-triazaacenaphthylene-2-carboxamide] | 6.6
15 | C=CC(=O)N1CC[C@@H](NC(=O)c2sc3nccc4c3c2NC(=O)N4c2c(Cl)ccc3c2OCO3)C1 [Example 209, (R)—N-(1-Acryloylpyrrolidin-3-yl)-5-(5-chlorobenzo[d][1,3]dioxol-4-yl)-4-oxo-4,5-dihydro-3H-1-thia-3,5,8-triazaacenaphthylene-2-carboxamide] | 7.1

Same assay, conditions: pIC50 = negative log of the IC50 in molar; 60 minutes incubation, 50 nM Tracer 236; read-out: BTK_I_binding pIC50 (converted)

Row | Compound | IC50 [nM]
16 | COc1ccc(N2C(=O)Nc3c(C(=O)N[C@@H]4CCCN(C(=O)/C(C#N)=[13CH]\C5CC5)C4)sc4nccc2c34)c(C)c1 [Example 176, ^13C—(R,Z)—N-(1-(2-Cyano-3-cyclopropylacryloyl)piperidin-3-yl)-5-(4-methoxy-2-methylphenyl)-4-oxo-4,5-dihydro-3H-1-thia-3,5,8-triazaacenaphthylene-2-carboxamide] | 63.1

Same assay, conditions: unphosphorylated-BTK kinase domain, 50 nM Tracer 236, 60 minutes; pIC50 = negative log of the IC50 in molar

Row | Compound | BTK_I_binding pIC50
17 | C=CC(=O)N1CC[C@@H](NC(=O)c2sc3nccc4c3c2NC(=O)N4c2nnc(Oc3ccccc3)cc2C)C1 [Example 351, (R)—N-(1-Acryloylpyrrolidin-3-yl)-5-(4-methyl-6-phenoxypyridazin-3-yl)-4-oxo-4,5-dihydro-3H-1-thia-3,5,8-triazaacenaphthylene-2-carboxamide] | <5
18 | O=C(N[C@@H]1CCCNC1)c1sc2nccc3c2c1NC(=O)N3c1cc(Cl)cc(Cl)c1 [Example 330, (R)-5-(3,5-Dichlorophenyl)-4-oxo-N-(piperidin-3-yl)-4,5-dihydro-3H-1-thia-3,5,8-triazaacenaphthylene-2-carboxamide] | 5.6
19 | CCC(=O)N1CC[C@@H](NC(=O)c2sc3nccc4c3c2NC(=O)N4c2ccc(Oc3ccccc3)cc2C)C1 (single isomer, unassigned) [Example 325, (R)-5-(*R)-(2-Methyl-4-phenoxyphenyl)-4-oxo-N-(1-propionylpyrrolidin-3-yl)-4,5-dihydro-3H-1-thia-3,5,8-triazaacenaphthylene-2-carboxamide] | 5.7
20 | Cc1cc(Oc2ccccc2)ccc1N1C(=O)Nc2c(C(=O)NC3(CO)CCOCC3)sc3nccc1c23 [Example 437, N-(4-(Hydroxymethyl)tetrahydro-2H-pyran-4-yl)-5-(*R)-(2-methyl-4-phenoxyphenyl)-4-oxo-4,5-dihydro-3H-1-thia-3,5,8-triazaacenaphthylene-2-carboxamide] | 5.8
21 | Cc1cc(Oc2ccccc2)ccc1N1C(=O)Nc2c(C(=O)NC3COCCN(C#N)C3)sc3nccc1c23 (single isomer, unassigned) [Example 485, N-(4-Cyano-1,4-oxazepan-6-yl)-5-(*S)-(2-methyl-4-phenoxyphenyl)-4-oxo-4,5-dihydro-3H-1-thia-3,5,8-triazaacenaphthylene-2-carboxamide] | 7.9
22 | C=CC(=O)N1CC[C@@H](NC(=O)c2sc3nccc4c3c2NC(=O)N4c2ccc(Oc3ccccc3)cc2)C1 [Example 443, (R)—N-(1-Acryloylpyrrolidin-3-yl)-4-oxo-5-(4-phenoxyphenyl)-4,5-dihydro-3H-1-thia-3,5,8-triazaacenaphthylene-2-carboxamide] | 7.7
23 | C=CC(=O)N1CCC[C@@H](NC(=O)c2sc3nccc4c3c2NC(=O)N4c2ccc3ccccc3c2)C1 [Example 419, (R)—N-(1-Acryloylpiperidin-3-yl)-5-(naphthalen-2-yl)-4-oxo-4,5-dihydro-3H-1-thia-3,5,8-triazaacenaphthylene-2-carboxamide] | 5.7
24 | C/C=C(\C#N)C(=O)N1CCC[C@@H](NC(=O)c2sc3nccc4c3c2NC(=O)N4c2ccc(Oc3ccccc3)cc2C)C1 [Example 385, (R,E)-N-(1-(2-Cyanobut-2-enoyl)piperidin-3-yl)-5-(2-methyl-4-phenoxyphenyl)-4-oxo-4,5-dihydro-3H-1-thia-3,5,8-triazaacenaphthylene-2-carboxamide] | 7.9
25 | Cc1cc(Oc2ccccc2)ccc1N1C(=O)Nc2c(C(=O)NCC3CCN(C)C3)sc3nccc1c23 (centres unmarked) [Example 282, 5-(2-Methyl-4-phenoxyphenyl)-N-((1-methylpyrrolidin-3-yl)methyl)-4-oxo-4,5-dihydro-3H-1-thia-3,5,8-triazaacenaphthylene-2-carboxamide] | 6.2

Same assay, conditions: unphosphorylated-BTK kinase domain, 60 minutes incubation, 50 nM Tracer 236; pIC50 = negative log of the IC50 in molar

Row | Compound | BTK_I_binding pIC50
26 | CN(C)c1ccc(N2C(=O)Nc3c(C(=O)N[C@@H]4CCCNC4)sc4nccc2c34)cc1 [Example 949, (R)-5-(4-(Dimethylamino)phenyl)-4-oxo-N-(piperidin-3-yl)-4,5-dihydro-3H-1-thia-3,5,8-triazaacenaphthylene-2-carboxamide] | 5.2
